From ChEMBL document CHEMBL1159218, “Metabolites of the Palauan sponge Axinyssa aplysinoides” (J Nat Prod, 1995)
Calls of active or inactive are those of the source. No cut-off for these calls is given here.

Tests used:
Staphylococcus aureus = experiment: Antibacterial activity against Staphylococcus aureus at 25 ug/disk by disc-diffusion assay; type: functional, organism-based
Bacillus subtilis = experiment: Antibacterial activity against Bacillus subtilis at 10 ug/disk by disc-diffusion assay; type: functional, organism-based

With `CC(C)[C@H]1CC[C@@H](C)C2=CC[C@](C)(NC=O)C[C@@H]21` (relative stereo) the Activity (Staphylococcus aureus) was “Active” and the Activity (Bacillus subtilis) was “Active”.
